Here are results for 10 compounds from PubChem BioAssay (NCI).

Common to all, as to test: inhibition of tumour cell growth, NCI panel, 48 h
Assay [1] deals with UACC-62 melanoma.
Assay [2] deals with SF-295 CNS.
The subject of assay [3] is SK-MEL-5 melanoma.
Assay [4] deals with UACC-257 melanoma.
Assay [5] relates to A549 NSCLC.
For assay [6], the system named is HL-60(TB) leukemia.
The test system of assay [7] is SN12C renal.
Assay [8] deals with K-562 leukemia.

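Values below derive from 48-hour exposures of cells grown in 96-well plates, with endpoints linearly interpolated between the two concentrations bracketing the appropriate inhibition level. The concentration for 50% growth inhibition is given as GI50. Definition used: TGI = concentration required for complete inhibition of growth.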

Consider `COc1ccccc1CNCCCN1C(=O)c2ccc3c4c(ccc(c24)C1=O)C(=O)N(CCCN)C3=O`, for which the GI50 in assay [1] is 0.422 µM; in assay [2] it was 1.31 µM; in assay [3], 0.262 µM; in assay [4], 0.74 µM; in assay [5], 1.87 µM; in assay [6], 0.826 µM. Besides, the figures for the GI50 in assay [7] and in assay [8] were 1.29 µM and 0.751 µM, respectively. The TGI in assay [1] was 1.56 µM; in assay [2] it was 2.81 µM; in assay [3] it was 0.899 µM; in assay [4], 2.27 µM; in assay [5], 4.11 µM; in assay [6], 2.54 µM. Also, the TGI in assay [7] is 2.76 µM; in assay [8] it was 3.35 µM.
In the case of `CC1=C(C(=O)N(C)c2ccc(Cl)c(C(=O)OC(C)C)c2)SCCO1`, the TGI in assay [1], in assay [2], in assay [3], in assay [4], in assay [5] and in assay [6] was > 100 µM throughout. Besides, the TGI in assay [7] and in assay [8] was > 100 µM each time.
With `N#CSCc1ccc(Cl)c(CSC#N)c1`, the GI50 in assay [1] is 2.53 µM; in assay [2], 3.15 µM; in assay [3], 0.33 µM; in assay [4], 15 µM; in assay [5], 1.44 µM; in assay [6], 0.0468 µM. For the same compound, the GI50 in assay [7] is 0.482 µM; in assay [8], 0.0576 µM. In addition, the TGI in assay [1] is 23.7 µM; in assay [2], > 49.3 µM; in assay [3], 12.2 µM; in assay [4], 50.2 µM; in assay [5], > 58.4 µM; in assay [6] it was 2.48 µM. Also, the TGI in assay [7] is 40.7 µM; in assay [8], > 45.5 µM.
On to `O=[N+]([O-])c1ccc(N2CCC(CCCC3CCN(c4ccc([N+](=O)[O-])cc4[N+](=O)[O-])CC3)CC2)c([N+](=O)[O-])c1`, for which the TGI in assay [1] came to 24.4 µM; in assay [2], 32.3 µM; in assay [3] it was 30.7 µM; in assay [4], 28.9 µM; in assay [5], 31.8 µM; in assay [6] it was 35.9 µM. Besides, the values for the TGI in assay [7] and in assay [8] were > 100 µM and 55.9 µM, respectively.
Take `Nc1ccccc1C#C/C=C\C#Cc1cccc(O)c1`: the GI50 was 1.87 µM in assay [1]; 2.19 µM in assay [2]; 2.47 µM in assay [3]; 10.2 µM in assay [4]; 2.78 µM in assay [5]; 4.15 µM in assay [6]. The GI50 in assay [7] was 2.66 µM; in assay [8] it was 3.81 µM. Also, the TGI turned out to be 6.6 µM in assay [1]; 8.29 µM in assay [2]; 14.5 µM in assay [3]; 23.4 µM in assay [4]; 15.7 µM in assay [5]; 21.2 µM in assay [6]. Besides, the TGI is 19.6 µM in assay [7] and 30.6 µM in assay [8].
Take `O=C(Nc1ccc(Oc2cccc(F)c2)c(Cl)c1)c1cnccn1`: the GI50 in assay [1] was 2.72 µM; in assay [2] it was 1.56 µM; in assay [3], 1.79 µM; in assay [4] it was 4.53 µM; in assay [5], 0.938 µM; in assay [6] it was 1.29 µM. In addition, the values for the GI50 in assay [7] and in assay [8] were 3.6 µM and 0.242 µM, respectively. Further, the TGI in assay [1] was > 50 µM; in assay [2] it was > 50 µM; in assay [3], > 50 µM; in assay [4], > 50 µM; in assay [5], > 50 µM; in assay [6] it was 3.72 µM. For the same compound, the TGI in assay [7] and in assay [8] was > 50 µM each time.
Consider `Nc1c(C(=O)c2cccc(C#CCO)c2)cnn1-c1ccc(F)cc1`, for which the GI50 in assay [1], in assay [2], in assay [3], in assay [4], in assay [5] and in assay [6] was > 25 µM each time. Moreover, the GI50 in assay [7] and in assay [8] was > 25 µM throughout. The TGI in assay [1], in assay [2], in assay [3], in assay [4], in assay [5] and in assay [6] was > 25 µM in each case. The TGI in assay [7] and in assay [8] was > 25 µM throughout.
With `COC(=N)c1c(N)[n+]([O-])c2ccc(F)cc2[n+]1[O-]`, the GI50 in assay [1] was > 100 µM; in assay [2] it was > 100 µM; in assay [3] it was 52.6 µM; in assay [4], > 100 µM; in assay [5], > 100 µM; in assay [6], > 100 µM. The GI50 in assay [7] and in assay [8] was > 100 µM each time. Moreover, the TGI in assay [1], in assay [2], in assay [3], in assay [4], in assay [5] and in assay [6] was > 100 µM each time. Further, the TGI in assay [7] and in assay [8] was > 100 µM throughout.
With `N#Cc1nc2c(S(=O)(=O)c3ccc(Cl)cc3)c(N)n(CCCN3CCOCC3)c2nc1C#N`, the GI50 was 10.8 µM in assay [1]; 17.6 µM in assay [2]; 6.67 µM in assay [3]; 5.91 µM in assay [4]; 19.5 µM in assay [5]; 2.14 µM in assay [6]. In addition, the GI50 in assay [7] was 10 µM; in assay [8], 3 µM. Moreover, the TGI in assay [1] was 31.1 µM; in assay [2], 40.7 µM; in assay [3] it was 20 µM; in assay [4], 22.7 µM; in assay [5] it was 84.1 µM; in assay [6], 6.55 µM. In addition, the TGI in assay [7] was > 100 µM; in assay [8], 31 µM.
On to `CCc1ccc2c(c1)C(=O)c1c-2n(CCCN=[N+]=[N-])c(=O)c2cc(OC)c(OC)cc12`, for which the GI50 in assay [1] was 91.9 µM; in assay [2], 56.1 µM; in assay [3] it was > 100 µM; in assay [4], > 100 µM; in assay [5], > 100 µM; in assay [6], > 100 µM. Also, the GI50 in assay [7] and in assay [8] was > 100 µM each time. The TGI in assay [1], in assay [2], in assay [3], in assay [4], in assay [5] and in assay [6] was > 100 µM each time. Also, the TGI in assay [7] and in assay [8] was > 100 µM each time.
